Patent publication US11253486B2, “Bakuchiol compositions for treatment of post inflammatory hyperpigmentation” (Unigen, Inc., priority 2011, dated 2022)

How the values were obtained:
mushroom tyrosinase = mushroom tyrosinase (Agaricus bisporus, UniProt C7FF04); experiment: Tyrosinase inhibition assay (L-DOPA to dopachrome); assay type: biochemical; details: eight different dosages; <100 ppm furanocoumarins; FIG. 4
Description: A tyrosinase inhibition assay was carried out using the method reported by Jones et al. (2002) Pigment. […] Using this method, the conversion of L-Dopa, a substrate of tyrosinase, into dopachrome was followed by monitoring absorption at 450 nm. Tyrosinase was prepared in 50 mM potassium phosphate buffer, pH 6.8 (assay buffer) at 2000 U/ml and stored at −20° C. in 1 ml aliquots prior to use. For use in assays, stock enzyme solutions were thawed and diluted to 200 U/ml with assay buffer. A 2 mM working solution of substrate, L-DOPA, was prepared in assay buffer for each assay. Samples were dissolved in 10% DMSO (0.5 ml) and diluted to 5 ml with assay buffer. The reaction mixture comprised 0.050 ml 2 mM L-DOPA, 0.050 ml 200 U/ml mushroom tyrosinase and 0.050 ml inhibitor. Reaction volume was adjusted to 200 μl with assay buffer. Assays were performed in 96 well Falcon 3097 flat-bottom microtiter plates (Beckton Dickinson, N.J.). Appearance of dopachrome was measured with a WALLAC 1420 Multilable Counter (Turku, Finland). Average velocity was determined from linear enzyme rate as measured by change in absorbance (ΔA450) at 450 nm per minute. Percent inhibition of tyrosinase by test samples was determined by comparison of absorbance of samples versus control using formula (1): (Negative control absorption−sample absorption)/Negative control absorption×100 (1)

[1] = Percutaneous absorption ex-vivo test; assay type: in vitro ADME, human; details: 0.5% formulation concentration, single application, over 48 hours
Excerpt: The partition coefficient of a chemical compound provides a thermodynamic measure of its hydrophilicity/lipophilicity balance and thus its potential bioavailability. […] The skin penetration of the active compound—bakuchiol in a skin care cream was quantified in an ex-vivo test on isolated human skin. […] In certain embodiments, the disclosed compositions comprise a skin penetration enhancer.
Two natural bakuchiol compositions comprising 86.54% bakuchiol and 77.02% bakuchiol and a combined total of less than 100 ppm psoralen and angelicin (isopsoralen) were formulated in a cosmetic vehicle or complicated skin care cream and tested on in vitro models or in human clinical trials for their safety profile.

[2] = tested on: subjects with PIH related to acne; experiment: Double blind placebo and positive controlled study for PIH related to acne (Example 11); assay type: in vivo, human; details: for PIH grade, mean: cream twice a day to the face
Description: The safety and efficacy of a 0.5% (wt/wt) cream of bakuchiol (UP256) was evaluated in a double blind placebo and positive controlled study for the treatment of PIH related to acne. The study evaluated a bakuchiol cream at 0.5% concentration, a 2% Salicylic acid cream and a placebo cream (Vehicle) in an Asian population. The participants were instructed to apply the study creams to the face twice a day (AM/PM). Study participants were given instructions for application and provided with sunscreen.
The study population consisted of male and female subjects older than 18 and younger than 40 years and in generally good health as determined by a medical history. The bakuchiol study arm enrolled 18 subjects, the Salicylic acid (SAL) study arm enrolled 20 subjects, and the placebo study arm enrolled 19 subjects.
The PIH grade is a measure of the severity of the hyperpigmentation (higher number=more severe pigmentation).
Primary Study Objectives: • 1. PIH IGA Time Frame: Baseline and weeks 2, 4 and 8 • 2. PIH % Distribution Time Frame: Baseline and weeks 2, 4 and 8
PIH efficacy was evaluated based on changes from baseline (p<0.05) and over other treatment groups (p<0.05) using t-test or/and ANOVA.
Subject's Assessment questionnaires and Tolerability Assessments were collected at Baseline and weeks 2, 4, and 8. Urine pregnancy tests for females of childbearing potential were collected at Baseline and week 8.
The following data was collected: • 1. Change from baseline in PIH Severity; • 2. Change from baseline in the PIH Grade; and • 3. Change from baseline in the Lesion counts
The data was analyzed from Investigator evaluations at each visit and from photographs taken at the specified time points. The photographs from baseline, week 4, and week 8 were evaluated by a second group of investigators and two independent dermatologists before the study was unblended to further confirm that the population met criteria. The data analyzed is based on confirmed evaluations, there was no photo for week two therefore week two data is not included in the analysis.

[3] = tested on: acne lesions and Post Inflammatory Hyperpigmentation; details: OTC drugs, Studies 1-3, 10 or 12 week studies; cited from earlier work
[4] = questionnaire and investigator safety evaluation, count

Sequence of mushroom tyrosinase (C7FF04 2-392): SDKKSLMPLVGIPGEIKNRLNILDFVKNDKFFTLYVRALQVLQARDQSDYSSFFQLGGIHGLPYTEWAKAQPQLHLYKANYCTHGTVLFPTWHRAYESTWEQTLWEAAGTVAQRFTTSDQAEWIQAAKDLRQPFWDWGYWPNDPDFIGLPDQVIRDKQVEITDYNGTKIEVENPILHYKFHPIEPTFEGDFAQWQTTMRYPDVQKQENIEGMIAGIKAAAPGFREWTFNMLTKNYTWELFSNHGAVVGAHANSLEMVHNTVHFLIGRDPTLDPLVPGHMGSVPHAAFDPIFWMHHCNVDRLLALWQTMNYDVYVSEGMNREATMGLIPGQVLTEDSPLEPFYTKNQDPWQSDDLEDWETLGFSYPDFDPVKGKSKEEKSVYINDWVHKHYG

## C=CC(C)(/C=C/c1ccc(O)cc1)CCC=C(C)C (centres unmarked) [bakuchiol]
Mushroom tyrosinase
  tyrosinase inhibition activity: no tyrosinase inhibition function
[1]
  skin penetration / percutaneous absorption: good skin penetration and bioavailability

## O=C(O)c1ccccc1O [Salicylic Acid, Salicylic acid]
[2]; Baseline
  Inflammatory acne lesions, mean: 11.2
  PIH grade, mean: 3.15
[2]; Week 4
  Inflammatory acne lesions, mean: 9.25
  PIH grade, mean: 3.2
[2]; Week 8
  Inflammatory acne lesions, mean: 8.65
  PIH grade, mean: 3.2
[2]; [4]
  Subject assessment: Itching/Burning: 4
  Subject assessment: Skin Discomfort: 2

## O=C(OOC(=O)c1ccccc1)c1ccccc1 [Benzoyl peroxide (5%), Benzoyl peroxide]
[3]
  Improvement of Post Inflammatory Hyperpigmentation: 0
  Mean percent reduction in inflammatory lesion counts: 32%
  Mean percent reduction in non-inflammatory lesion counts: 22%
  Mean percent reduction in total lesion counts: 28%
